Experimental findings from article PMC10151334, “Anti-proliferative potential and oxidative reactivity of thermo-oxidative degradation products of stigmasterol and stigmasteryl esters for human intestinal cells” (Scientific Reports, 2023) are described below.

The subject of data set [1] is CCD 841 CoN cells. The data set can be described thus: DNA synthesis, BrdU incorporation (Cell Proliferation ELISA). The class given is cell-based, human. To be noted: 48 h. As for the experimental part: CCD 841 CoN cells were grown in black 96-well plates at an initial cell density of 2 × 10^4 cells/cm^2 for 24 h under standard culture conditions. The cells were treated with ST (2.5, 5, 10, 20, and 40 μg/mL) and its esters ST-OA and ST-LA (10, 20, and 40 μg/mL) for 48 h. DNA synthesis was measured by incorporating thymidine analog 5-bromo-2′-deoxyuridine (BrdU) into newly synthesized DNA using the Cell Proliferation ELISA kit according to the protocol recommended by the manufacturer (Roche Diagnostics GmbH, Mannheim, Germany). Briefly, BrdU was added to the treated cells 24 h before the end of the exposure to the ST, ST-OA, and ST-LA (final BrdU concentration of 10 μM). After treatment, BrdU-labeled DNA was denatured (30 min, 20 °C). Then, BrdU was bonded with a peroxidase-conjugated anti-BrdU antibody (90 min, 20 °C) and reacted with the peroxidase substrate. The absorbance measurement was done with a stop solution (1 M H2SO4) at 450 nm with reference wavelength 690 nm using a Tecan M200 Infinite microplate reader.
(Incorporation of labelled thymidine or its analogues reports DNA synthesis.)

In data set [2] the test system is CCD 841 CoN cells. As to the kind of experiment: Cell cycle analysis by flow cytometry (propidium iodide). The class given is cell-based, human. To be noted: 40 μg/mL, 24 h. As to the method: CCD 841 CoN cells were grown in 6-well plates at an initial cell density of 2 × 10^4 cells/cm^2 for 24 h under standard culture conditions. The cells were treated for 24 h with the analyzed compounds at a concentration of 40 μg/mL; the high dose was applied because of the relatively low cytotoxic potential of ST-OA and ST-LA as determined in cytotoxicity studies. In addition, the cells were exposed to 0.05 μM camptothecin (Sigma-Aldrich) as a positive reference compound known to modulate cell cycle progression.
After treatment, the cells were harvested by trypsinization, washed in PBS, and fixed in 70% ethanol. Then, the cells were stained with 50 μg/mL propidium iodide in the presence of 100 μg/mL RNase (Sigma-Aldrich). The sample preparation method and staining protocol were described previously. The cycle phase distribution was analyzed with an Amnis™ FlowSight™ flow cytometer (Luminex Corporation, TX, USA).
(In general: In flow cytometry, cells or beads pass a laser one at a time.)

For another data set, the system named is S. typhimurium TA100. Conditions: 40 μg/mL, without metabolic activation. As for the experimental part:
(§1) Potential mutagenicity or pro-mutagenicity of non-heated and heated ST, ST-LA, and ST-OA was determined using the bacterial reverse mutation assay (Ames test) with Salmonella enterica subsp. enterica ser. typhimurium tester strains TA98, TA100, and TA102, which were obtained from the Polish Collection of Microorganisms of the Institute of Immunology and Experimental Therapy of the Polish Academy of Sciences in Wroclaw.
(§2) Mutagenicity experiments were performed in the liquid pre-incubation assay, without and with metabolic activation by supplying Aroclor 1254-induced rat liver microsomal fraction (S9, Sigma-Aldrich) with NADP and cofactors for NADPH-supported oxidation, according to the procedure described by Mortelmans and Zeiger[39]. Briefly, reaction mixtures, consisting of 12-h bacterial culture, non-heated and heated compound (ST, ST-LA, ST-OA) at a concentration of 40 μg, 0.2 M phosphate buffer (pH 7.4), and alternatively S9 activating mixture, were pre-incubated at 37 °C for 20 min. […] The mutagen, 2-aminoanthracene (5 μg) (Sigma-Aldrich), was a positive control in pro-mutagenicity experiments. After pre-incubation, the reaction mixtures were added to the top agar supplemented with traces of histidine and biotin and poured onto the plates covered with minimum glucose agar. The cultures were incubated for 48 h at 37 °C, and the number of revertants (His+) colonies was counted manually.
(§3) Compounds with MI ≥ 2 can be recognized as potentially mutagenic.

In the next data set the test system is S. typhimurium TA98. The data set can be described thus: Bacterial reverse mutation assay (Ames test), strain TA98. To be noted: 40 μg/mL, with microsomal fraction (+ S9). As for the experimental part: as §1, §2, §3
(In general: In the Ames test, an excess of revertant colonies over the control signals mutagenicity.)

Data set [3] in a line: Thermo-oxidative treatment at 180 °C for 8 h, degradation of the compound. The class given is physicochemical. To be noted: heated at 180 °C for 8 h under oxygen atmosphere. As to the method: ST, ST-OA, and ST-LA (50 mg each) were placed separately in glass vials and heated at 180 °C for 8 h under an oxygen atmosphere. After thermo-oxidative treatment, the tested compounds were stored at − 20 °C until chemical and biological analyses. The non-heated and heated ST and its esters were analyzed to detect degradation products and oxyderivatives. Analytical methods were described in the article published previously.

Consider `CC[C@H](/C=C/[C@@H](C)[C@H]1CC[C@H]2[C@@H]3CC=C4C[C@@H](O)CC[C@]4(C)[C@H]3CC[C@]12C)C(C)C` [ST, Stigmasterol], for which the “decrease in DNA synthesis (BrdU incorporation)” value in the data set on CCD 841 CoN cells [1] (5 μg/mL, P = 0.028) was 10%; in the data set with CCD 841 CoN cells [1] (40 μg/mL) it was 61%. For the same molecule, the “first dose that significantly inhibited DNA synthesis” value in the data set with CCD 841 CoN cells [1] amounted to 5 µg/mL. The “cell accumulation in G2/M phases” value with CCD 841 CoN cells [2] is listed as “significant cell accumulation in the G2/M phases”. In addition, in the data set on S. typhimurium TA100, the “Mutagenic index TA100” value came to 1.9. The “increase in number of revertant colonies TA98” value in the data set on S. typhimurium TA98 is given as 1.6 fold. In addition, in data set [3], the “Sterol moiety depletion (%)” value is on record as 80.4 ± 13.5%.
